± gives the expanded uncertainty stated by the source.
Experiments:
[1] = Molar enthalpy of transition or fusion; conditions: DSC
[2] = DTA

In the case of CCCCCCCCCCCCCCCCCCCCCC [docosane], the “Molar enthalpy of transition or fusion” value ([1]; Crystal 1) is reported as 11.7 ± 0.382 kcal/mol, the “Molar enthalpy of transition or fusion” value ([1]; Crystal 2) is reported as 6.92 ± 0.153 kcal/mol and the Triple point temperature ([2]; Crystal 1) is reported as 318.08 ± 0.39 K. It also gave a Triple point temperature ([2]; Crystal 2) of 317.22 ± 0.39 K.
